# Columns and labels:
# [1] = tested on: S. aureus USA300; experiment: MIC; format: cell-based; details: in words
# Method: (§1) MICs of compounds in each strain were determined in cation-adjusted Mueller-Hinton II (MHII) broth or MHII agar according to the Clinical and Laboratory Standards Institute protocol (CLSI 2006). To measure the effect of protein binding on activity, MIC assays were performed in the presence of 50% heat-inactivated human serum. The serum killing assay was performed as described previously ([43]). FOR assays and growth on plates containing G0790 were always performed on MHII agarose plates.
# [2] = tested on: A. baumannii 17978; experiment: MIC; format: cell-based; details: A. baumannii ATCC 17978; in words
# Method: as §1
# [3] = tested on: E. coli CFT073 Δlpp; experiment: MIC; format: cell-based
# Method: as §1
# [4] = tested on: E. coli CFT073(pBADlspA); experiment: MIC; format: cell-based; details: in words
# Method: as §1
# [5] = tested on: E. coli CFT073 imp4213; experiment: MIC; format: cell-based; details: in words
# Method: as §1
# [6] = tested on: E. coli MG1655 ΔtolC; experiment: MIC; format: cell-based; details: E. coli MG1655 WT vs MG1655 ΔtolC
# Method: as §1
# [7] = tested on: G0790-resistant CFT073 Δlpp; experiment: MIC against G0790-resistant CFT073 Δlpp strains; format: cell-based, E. coli; details: non-lspA_GA
# Method: as §1
# Frequencies of resistance (FORs) of G0790 were determined for E. coli CFT073, E. cloacae (ATCC 13047), and K. pneumoniae (ATCC 700603) as previously published ([70]). To determine the FOR, 3 to 4 colonies of the strain to be tested were picked from a fresh plate and diluted to an optical density at 600 nm (OD600) of 0.00001 in 1 ml of cation-adjusted MHBII. Ten independent 5-ml cultures in MHBII were prepared by inoculating 5 μl (approximately 1 × 10^3 CFU) and incubated at 37°C for 18 h. […] In parallel, CFU from each independent culture was measured by spotting 10-fold serial dilutions on MHII agar plates and incubated at 37°C for 18 h. Colonies were counted at days 1, 2, and 3 postinoculation. FOR was calculated as the ratio of the total number of resistant colonies relative to the total CFU plated. […]
# [8] = tested on: G0790-resistant E. coli CFT073; experiment: Population analysis profile (heteroresistance); format: cell-based; details: MHII agarose, 18 h, 37°C
# Method: The population analysis profiles of G0790 heteroresistant subpopulations were determined according to a method described previously ([79]). Briefly, three independent cultures for each G0790-resistant mutant strain were grown overnight at 37°C in MHBII containing G0790 at sub-MICs to maintain selective pressure. Five microliters or 10-fold serial dilution (10^−1 to 10^−7) in duplicates for each culture were transferred to MHII agarose plates or MHII agarose plates containing a range of G0790 concentrations (100, 75, 50, 37.5, 25, 12.5, 6.25, 3.125, 1.56, 0.8, and 0.4 μM). CFU were enumerated after incubation at 37°C for 18 h. Heteroresistance was defined using the criteria published by El-Halfawy and colleagues, which states there should be a >8-fold difference between the highest noninhibitory concentration and the highest inhibitory concentration ([2], [80]).
# [9] = tested on: E. coli CFT073; experiment: Frequency of resistance (FOR); format: cell-based; details: 4× MIC, MHII agarose
# Method: (§2) Frequencies of resistance (FORs) of G0790 were determined for E. coli CFT073, E. cloacae (ATCC 13047), and K. pneumoniae (ATCC 700603) as previously published ([70]). To determine the FOR, 3 to 4 colonies of the strain to be tested were picked from a fresh plate and diluted to an optical density at 600 nm (OD600) of 0.00001 in 1 ml of cation-adjusted MHBII. Ten independent 5-ml cultures in MHBII were prepared by inoculating 5 μl (approximately 1 × 10^3 CFU) and incubated at 37°C for 18 h. The bacteria were pelleted by centrifugation at 4000 × g at 4°C for 15 min and resuspended in 0.5 ml fresh MHBII. Two hundred fifty microliters of the bacterial suspension was plated evenly on MHII agarose plates containing globomycin or G0790 at a final concentration of 4× and 8× MIC. In parallel, CFU from each independent culture was measured by spotting 10-fold serial dilutions on MHII agar plates and incubated at 37°C for 18 h. Colonies were counted at days 1, 2, and 3 postinoculation. FOR was calculated as the ratio of the total number of resistant colonies relative to the total CFU plated. For strains that had no resistant colonies growing on plates, the p0 method was used to calculate the FOR (FOR = m/total CFU plated, where m = −ln p0 and p0 is the proportion of cultures with no mutants; 0.7 ≥ p0 ≥ 0.1), as described previously ([71]). Colonies were picked and resuspended in 30 μl MHBII broth medium, and 10 μl was plated on an MHII agar plate containing G0790 to be used to determine the MIC. Of the remaining 20 μl, half was used to inoculate 1.5 ml MHBII broth medium containing G0790 and grown at 37°C for 18 h to generate cell lysates for Western blot analysis, isolate genomic DNA (gDNA) for whole-genome sequencing, and for frozen glycerol stocks.
# [10] = tested on: E. coli CFT073 Δlpp; experiment: Frequency of resistance (FOR); format: cell-based; details: for FOR (frequency of resistance): MHII agarose
# Method: as §2
# [11] = tested on: E. cloacae 13047; experiment: Frequency of resistance (FOR); format: cell-based; details: 4× MIC, MHII agarose
# Method: as §2
# [12] = tested on: K. pneumoniae 700603; experiment: Frequency of resistance (FOR); format: cell-based; details: 4× MIC
# Method: as §2
smiles,measurement,setting,value
CCCCCC[C@H]1OC(=O)CNC(=O)[C@H]([C@H](C)O)NC(=O)[C@H](CN)NC(=O)[C@H](C2CCCCC2)NC(=O)[C@H](CCC)N(C)C(=O)[C@@H]1C [G0790],Activity against S. aureus USA300,[1],no increased activity
same,MIC against A. baumannii compared to GBM,[2],modestly decreased MIC
same,MIC,"[3]; CFT073 Δlpp parent, resistant-strain study",19.5 µg/mL
same,Susceptibility of CFT073 Δlpp relative to parental WT,[3]; in words,more resistant to G0790 than the parental WT strain
same,Effect of LspA overexpression or lpp deletion on inhibition of WT CFT073 and CFT073 imp4213,[4],decreased upon LspA overexpression or lpp deletion
same,Activity against CFT073 imp4213 relative to GBM,[5],more active than GBM
same,WT/tolC MIC shift,[6],~31 fold
same,MIC,"[7]; CFT073 Δlpp 4×-R1, lspA_GA",78 µg/mL
same,MIC,"[7]; CFT073 Δlpp 4×-R2, lspA_GA",78 µg/mL
same,Fold difference between highest inhibitory and highest noninhibitory concentration,[8]; CFT073 4×-R3,128 fold
same,Fold difference between highest inhibitory and highest noninhibitory concentration,[8]; CFT073 4×-R10,96 fold
same,Fold difference between highest inhibitory and highest noninhibitory concentration,[8]; CFT073 8×-R5,12 fold
same,FOR (frequency of resistance),[9],2.9 × 10^−9
same,Decrease in FOR in CFT073 Δlpp compared to WT CFT073,[10]; 4× MIC,~85 fold
same,FOR (frequency of resistance),[10]; 4× MIC,3.4 × 10^−11
same,FOR (frequency of resistance),"[10]; 8× MIC, no colonies, p0 method",<1.7 × 10^−11
same,FOR (frequency of resistance),[11],2.7 × 10^−9
same,FOR increase in K. pneumoniae 700603 relative to E. coli,[12],~17 fold
same,FOR (frequency of resistance),[12]; MHII agarose,4.8 × 10^−8
